How the values were obtained:
MDA-MB-468 = assay: Cytotoxicity against human MDA-MB-468 cells assessed as cell growth at 10 uM after 48 hrs by SRB assay relative to control; format: functional; conditions: MDA-MB-468, 48 h, read-out: Activity
BT-549 = assay: Cytotoxicity against human BT549 cells assessed as cell growth at 10 uM after 48 hrs by SRB assay relative to control; format: functional; conditions: BT-549, 48 h, read-out: Activity
[1] = Cytotoxicity against human PC3 cells assessed as cell growth at 10 uM after 48 hrs by SRB assay relative to control; format: functional; conditions: PC-3, 48 h, read-out: Activity
CAKI-1 [2] = assay: Cytotoxicity against human Caki1 cells assessed as cell growth at 10 uM after 48 hrs by SRB assay relative to control; format: functional; conditions: CAKI-1, 48 h, read-out: Activity
A498 = assay: Cytotoxicity against human A498 cells assessed as cell growth at 10 uM after 48 hrs by SRB assay relative to control; format: functional; conditions: A498, 48 h, read-out: Activity
[3] = Cytotoxicity against human SKOV3 cells assessed as cell growth at 10 uM after 48 hrs by SRB assay relative to control; format: functional; conditions: SK-OV-3, 48 h, read-out: Activity
SR = assay: Cytotoxicity against human SR cells assessed as cell growth at 10 uM after 48 hrs by SRB assay relative to control; format: functional; conditions: read-out: Activity
DU-145 = assay: Cytotoxicity against human DU145 cells assessed as cell growth at 10 uM after 48 hrs by SRB assay relative to control; format: functional; conditions: DU-145, 48 h, read-out: Activity
SF-268 = assay: Cytotoxicity against human SF268 cells assessed as cell growth at 10 uM after 48 hrs by SRB assay relative to control; format: functional; conditions: SF-268, 48 h, read-out: Activity
[4] = Cytotoxicity against human UACC257 cells assessed as cell growth at 10 uM after 48 hrs by SRB assay relative to control; format: functional; conditions: UACC-257, 48 h, read-out: Activity
SK-MEL-5 = assay: Cytotoxicity against human SK-MEL-5 cells assessed as cell growth at 10 uM after 48 hrs by SRB assay relative to control; format: functional; conditions: SK-MEL-5, 48 h, read-out: Activity
MDA-MB-435 = assay: Cytotoxicity against human MDA-MB-435 cells assessed as cell growth at 10 uM after 48 hrs by SRB assay relative to control; format: functional; conditions: MDA-MB-435, 48 h, read-out: Activity
M14 = assay: Cytotoxicity against human M14 cells assessed as cell growth at 10 uM after 48 hrs by SRB assay relative to control; format: functional; conditions: M14, 48 h, read-out: Activity
Malme-3M = assay: Cytotoxicity against human MALME-3M cells assessed as cell growth at 10 uM after 48 hrs by SRB assay relative to control; format: functional; conditions: read-out: Activity
U-251 = assay: Cytotoxicity against human U251 cells assessed as cell growth at 10 uM after 48 hrs by SRB assay relative to control; format: functional; conditions: U-251, 48 h, read-out: Activity
LOX IMVI = assay: Cytotoxicity against human LOXIMVI cells assessed as cell growth at 10 uM after 48 hrs by SRB assay relative to control; format: functional; conditions: read-out: Activity
SNB-75 = assay: Cytotoxicity against human SNB75 cells assessed as cell growth at 10 uM after 48 hrs by SRB assay relative to control; format: functional; conditions: SNB-75, 48 h, read-out: Activity
SNB-19 = assay: Cytotoxicity against human SNB19 cells assessed as cell growth at 10 uM after 48 hrs by SRB assay relative to control; format: functional; conditions: SNB-19, 48 h, read-out: Activity
KM12 = assay: Cytotoxicity against human KM12 cells assessed as cell growth at 10 uM after 48 hrs by SRB assay relative to control; format: functional; conditions: KM12, 48 h, read-out: Activity
NCI-H522 = assay: Cytotoxicity against human NCI-H522 cells assessed as cell growth at 10 uM after 48 hrs by SRB assay relative to control; format: functional; conditions: NCI-H522, 48 h, read-out: Activity
NCI-H322M = assay: Cytotoxicity against human NCI-H322M cells assessed as cell growth at 10 uM after 48 hrs by SRB assay relative to control; format: functional; conditions: read-out: Activity
HOP-92 = assay: Cytotoxicity against human HOP92 cells assessed as cell growth at 10 uM after 48 hrs by SRB assay relative to control; format: functional; conditions: HOP-92, 48 h, read-out: Activity
A549 = assay: Cytotoxicity against human A549 cells assessed as cell growth at 10 uM after 48 hrs by SRB assay relative to control; format: functional; conditions: A549, 48 h, read-out: Activity
K562 = assay: Cytotoxicity against human K562 cells assessed as cell growth at 10 uM after 48 hrs by SRB assay relative to control; format: functional; conditions: K562, 48 h, read-out: Activity
HL-60(TB) = assay: Cytotoxicity against human HL-60(TB) cells assessed as cell growth at 10 uM after 48 hrs by SRB assay relative to control; format: functional; conditions: HL-60, 48 h, read-out: Activity
CCRF-CEM = assay: Cytotoxicity against human CCRF-CEM cells assessed as cell growth at 10 uM after 48 hrs by SRB assay relative to control; format: functional; conditions: read-out: Activity
MDA-MB-231 [5] = assay: Growth inhibition of human MDA-MB-231 cells after 72 hrs by MTT assay; format: functional, cell-based; conditions: MDA-MB-231, 72 h
MDA-MB-231 [6] = assay: Antimigratory activity against human MDA-MB-231 cells after 24 hrs by wound-healing assay; format: functional, cell-based; conditions: MDA-MB-231, 24 h
[7] = Cytotoxicity against human SKOV3 cells assessed as cell growth at 10^-4 M after 48 hrs by SRB assay relative to control; format: functional; conditions: SK-OV-3, 48 h, read-out: Activity
[8] = Cytotoxicity against human OVCAR4 cells assessed as cell growth at 10^-8 M after 48 hrs by SRB assay relative to control; format: functional; conditions: OVCAR-4, 48 h, read-out: Activity
CAKI-1 [9] = assay: Cytotoxicity against human Caki1 cells assessed as cell growth at 10^-8 M after 48 hrs by SRB assay relative to control; format: functional; conditions: CAKI-1, 48 h, read-out: Activity
[10] = Cytotoxicity against human PC3 cells assessed as cell growth at 10^-8 M after 48 hrs by SRB assay relative to control; format: functional; conditions: PC-3, 48 h, read-out: Activity
[11] = Cytotoxicity against human HCT15 cells after 48 hrs by SRB assay; format: functional; conditions: HCT-15, 48 h
SW-620 = assay: Cytotoxicity against human SW620 cells after 48 hrs by SRB assay; format: functional; conditions: SW-620, 48 h
NCI-H226 = assay: Cytotoxicity against human NCI-H226 cells assessed as cell growth at 10^-6 M after 48 hrs by SRB assay relative to control; format: functional; conditions: NCI-H226, 48 h, read-out: Activity
[12] = Cytotoxicity against human OVCAR4 cells assessed as cell growth at 10^-6 M after 48 hrs by SRB assay relative to control; format: functional; conditions: OVCAR-4, 48 h, read-out: Activity
[13] = Cytotoxicity against human PC3 cells assessed as cell growth at 10^-6 M after 48 hrs by SRB assay relative to control; format: functional; conditions: PC-3, 48 h, read-out: Activity
[14] = read-out: LC50 (the source's name)

| Compound | growth at 10 µM (MDA-MB-468) [%] | growth at 10 µM [1] [%] | growth at 10 µM (CAKI-1 [2]) [%] | growth at 10 µM (A498) [%] | growth at 10 µM [3] [%] | growth at 10 µM [4] [%] | growth at 10 µM (SK-MEL-5) [%] | growth at 10 µM (MDA-MB-435) [%] | growth at 10 µM (M14) [%] | growth at 10 µM (Malme-3M) [%] | growth at 10 µM (U-251) [%] | growth at 10 µM (LOX IMVI) [%] | growth at 10 µM (SNB-75) [%] | growth at 10 µM (SNB-19) [%] | growth at 10 µM (KM12) [%] | growth at 10 µM (NCI-H522) [%] | growth at 10 µM (NCI-H322M) [%] | growth at 10 µM (A549) [%] | growth at 10 µM (K562) [%] | growth at 10 µM (HL-60(TB)) [%] | further results |
| --- | --- | --- | --- | --- | --- | --- | --- | --- | --- | --- | --- | --- | --- | --- | --- | --- | --- | --- | --- | --- | --- |
| CC(C)=CCC[C@H](C)c1ccc(C)c2c1OCN(CCCCCO)C2 | 90 | 68.6 | 78.1 | 75.3 | 88.8 | 78.4 | 91.7 | 97.1 | 84.2 | 93.7 | 83.8 | 77.6 | 85.6 | 88.8 | 104 | -1.75 | 102 | 82.5 | 31.1 | 51.7 | growth at 10 µM (BT-549): 72.1%; growth at 10 µM (SR): 66.6%; growth at 10 µM (DU-145): 109%; growth at 10 µM (SF-268): 97.5%; growth at 10 µM (HOP-92): 27.7%; growth at 10 µM (CCRF-CEM): 96%; IC50 (MDA-MB-231 [5]): 5.4 µM; IC50 (MDA-MB-231 [6]): 10 µM |
| CC(C)=CCC[C@H](C)c1ccc(C)c(CNCC2CCNCC2)c1O | 70 | 85 | 71.8 | 65 | 83 | 64.2 | 73 | 13.9 | 46.7 | 88 | 57 | 37.1 | 71 | 84 | 84 | 86.8 | 80 | 86 | 2.65 | 99 | growth at 100 µM [7]: 8%; growth at 10 µM (SR): 0.23%; growth at 0.01 µM [8]: 100%; growth at 0.01 µM (CAKI-1 [9]): 92%; growth at 0.01 µM [10]: 97%; growth at 10 µM (DU-145): 91.2%; growth at 10 µM (SF-268): 87.7%; growth at 10 µM (CCRF-CEM): 71.3%; IC50 (MDA-MB-231 [5]): 18.3 µM; GI50 [11]: 5.19 µM; TGI [11]: 18.6 µM; CC50 [11, 14]: > 25 µM; GI50 (SW-620): 4.11 µM; TGI (SW-620): 8.14 µM; CC50 (SW-620; [14]): 16.1 µM; growth at 1 µM (NCI-H226): 86%; growth at 1 µM [12]: 101%; growth at 1 µM [13]: 101%; IC50 (MDA-MB-231 [6]): > 20 µM |
| CC(C)=CCC[C@H](C)c1ccc(C)c(CO)c1O | 93.5 | 89.1 | 112 | 97.4 | 122 | 91.9 | 85.1 | 108 | 103 | 110 | 98.8 | 103 | 83.4 | 101 | 92.1 | 87.1 | 109 | 78.5 | 101 | 95.7 | growth at 10 µM (BT-549): 91.8%; growth at 10 µM (HOP-92): 65.2%; growth at 10 µM (CCRF-CEM): 94.2%; IC50 (MDA-MB-231 [5]): 22.2 µM; IC50 (MDA-MB-231 [6]): 12.3 µM |
| CC(C)=CCC[C@H](C)c1ccc(C)cc1O | 95.7 | 80 | 107 | 87.8 | 119 | 107 | 97.5 | 100 | 106 | 115 | 103 | 107 | 94.3 | 98.5 | 93.8 | 101 | 113 | 92.6 | 93 | 85.7 | growth at 10 µM (BT-549): 114%; growth at 10 µM (HOP-92): 85%; growth at 10 µM (CCRF-CEM): 105%; IC50 (MDA-MB-231 [5]): > 50 µM; IC50 (MDA-MB-231 [6]): 37.2 µM |

From ChEMBL document CHEMBL3390836, “Mannich- and LedererManasse-based analogues of the natural product S-(+)-curcuphenol as cancer proliferation and migration inhibitors” (Medchemcomm, 2012)
